# Measured values reported in patent US10077455B2, “3HP tolerance” (TECHNICAL UNIVERSITY OF DENMARK, priority 2013, dated 2018).
# Columns and labels:
# [1] = system: E. coli strains W3110, CROOKS, W, BL21 (DE3), MG1655; assay: Effect of GSH addition on growth of E. coli strains in M9 with 20 g/L 3HP; format: cell-based; conditions: for effect of GSH addition on viability: M9 minimal medium with 20 g/L 3HP, pH 7.0, 37° C.
# Description: For E. coli, the effect of GSH addition on the growth of E. coli in the presence of 20 g/L 3HP was investigated. Five platform E. coli wild-type strains e.g. W3110, CROOKS, W, BL21 (DE3) and MG1655 were selected for 3HP tolerance experiment. Single colony from each strain was inoculated into 3 mL M9 medium and incubated at 250 rpm, 37° C., overnight. Two μL of the overnight cultures were used to inoculate 150 μL M9 medium, M9 with 20 g/L 3HP, and M9 with 20 g/L 3HP and 5 mM GSH in 96-well flat bottom plate. The pH of all E. coli tested media was at pH 7.0.
# The composition of M9 medium was as follows: 2.0 g/L glucose, 6.8 g/L Na HPO4, 3.0 g/L KH2PO4, 0.5 g/L NaCl, 1.0 g/L NH4Cl, 0.24 g/L MgSO4, 0.011 g/L CaCl2, 0.5 mL/L trace elements solution, and 1.0 mL/L Wolfe's Vitamin solution. The trace elements solution included 1.0 g/L FeCl3.6H2O, 0.18 g/L ZnSo4.7H2O, 0.12 g/L CuCl2.2H2O, 0.12 g/L MnSO4.H2O, and 0.18 g/L CoCl2.6H2O. The Wolfe's vitamin solution included 10 mg/L pyridoxine hydrochloride, 5.0 mg/L thiamine HCl, 5.0 mg/L riboflavin, 5.0 mg/L nicotinic acid, 5.0 mg/L calcium-(+) phantothenate, 5.0 mg/L para-amino benzoic acid, 5.0 mg/L thiotic acid, 2.0 mg/L d-biotin, 2.0 mg/L folic acid, and 0.1 mg/L vitamin B12. The trace elements and vitamin solutions were sterile-filtered and the solution was stored at 4° C. The M9 salt solution was prepared as a 10× concentrate solution and sterilized by autoclaving. 20% Glucose solution, 1M MgSO4, and 1M CaCl2 stock solutions were autoclaved separately.
# K. marxianus = assay: Effect of GSH addition on growth of yeast strains with 50 g/L 3HP; format: cell-based, Kluyveromyces marxianus
# Description: (§2) The yeast strains were grown in 3 mL Delft medium (pH 6.0) at 250 rpm, 25° C., overnight. Three μL of the overnight cultures were used to inoculate 100 μL Delft medium (pH 6.0) with or without 50 g/[MUT] in 96-well flat bottom plate. The 96-well plate was incubated with shaking in the SynergyTM MX microplate reader (BioTek) at 25° C. and the absorbance was measured at 600 nm wavelength every 15 min for 72 hours. Experiments were done in triplicates, and the specific growth rate (h^-1) was calculated. The effect of GSH addition was performed by adding 5 mM GSH into the cultivation medium containing 50 g/[MUT]. The growth of each strain was determined as mentioned above.
# C. jadinii = assay: as above; format: cell-based, Cyberlindnera jadinii
# Description: as §2
# [2] = system: S. cerevisiae strains ST609, ST610, ST611; assay: 3HP tolerance of SFA1 allele replacement strains; format: cell-based, Saccharomyces cerevisiae; conditions: Delft buffered pH 3.5
# Description: For testing 3HP tolerance phenotype, two single colonies from each strain: ST609 (SFA1-wt), ST610 (SFA1^G827C) and ST611 (SFA1^G849A) were investigated for the ability to grow on media containing 3HP. […] The plate was incubated at 30° C. with 250 rpm agitation at 5 cm orbit cast overnight. […] Experiments were done in duplicates.
# Rhodotorula minuta = assay: Effect of GSH addition on growth of yeast strains with 50 g/L 3HP; format: cell-based
# Description: as §2
# Y. lipolytica = assay: as above; format: cell-based, Yarrowia lipolytica
# Description: as §2
# S. pombe = assay: as above; format: cell-based, Schizosaccharomyces pombe
# Description: as §2
# T. delbrueckii = assay: as above; format: cell-based, Torulaspora delbrueckii
# Description: as §2
# [3] = system: S. cerevisiae CEN.PK 113-7D strain (WT); assay: Toxicity of 3HP on growth of S. cerevisiae in Delft minimal medium; format: cell-based, Saccharomyces cerevisiae; conditions: Delft buffered medium pH 3.5, 30° C., 42 hours
# Description: The toxicity of 3HP on growth of S. cerevisiae CEN.PK 113-7D strain (WT) was determined by evaluating the ability of the WT strain to grow on a chemically defined minimal medium (Delft) containing varying concentrations of 3HP (0-100 g/L). The composition of Delft medium was as follows: 20.0 g/L glucose, 5.0 g/L (NH4)2SO4, 3.0 g/L KH2PO4, 0.5 g/L MgSO4.7H2O, 1.0 mL/L trace metal solution, 0.05 g/L antifoam A (10794, Sigma-Aldrich), and 1.0 mL/L vitamin solution. The trace element solution included 15 g/L EDTA, 0.45 g/L CaCl2.2H2O, 0.45 g/L ZnSO4.7H2O, 0.3 g/L FeSO4.7H2O, 100 mg/L […], 1 g/L MnCl2.2H2O, 0.3 g/L CoCl2.6H2O, 0.3 g/L CuSO4.5H2O, 0.4 g/L NaMoO4.2H2O. The pH of the trace metal solution was adjusted to 4.0 with 2 M NaOH and heat sterilized. […]
# A single colony from YPD plate (10 g/L yeast extract, 20 g/L peptone, 20 g/L glucose and 20 g/L agar) was inoculated in a shake flask with 20 mL YPD broth and grown at 30° C., with shaking at 200 rpm, overnight. The absorbance (OD600) of the overnight culture was measured at 600 nm wave length using NanoPhotometer™ UV/Vis (Implen) and the culture was diluted with YPD medium to obtain inoculum with the OD600 around 0.8. […] Experiments were done in duplicates, and the specific growth rate (h^−1) was calculated at various concentrations of 3HP.
# [4] = system: S. cerevisiae WT, SFA1-alleles and sfa1Δ strains
# Description: The role of GSH in 3HP detoxification was investigated. The WT, SFA1-allles, and sfa1Δ strains were grown in the minimal medium with or without 50 g/L 3HP and supplemented with various concentration of external GSH (0-30 mM) and tested for 3HP tolerance.
# For testing 3HP tolerance phenotype, the pre-cultures were prepared by inoculation of a single colony in 1 mL Delft buffered (pH 3.5) media containing 10 g/L 3HP. The cultures were incubated at 30° C. with 250 rpm overnight. Five μL of the overnight cultures were used to inoculate 100 μL Delft buffered (pH 3.5) with or without 50 g/L 3HP and various concentration of GSH (0, 1, 2.5, 5, 10, and 20 mM) in 96-well flat bottom plate. The 96-well plate was incubated at 30° C. with shaking in the Synergy™ MX microplate reader (BioTek) and the absorbance was measured at 600 nm wavelength every 15 min for 42 hours. Experiments were done in triplicates.
# S. cerevisiae = conditions: 5 mM GSH, 50 g/L 3HP, Delft medium pH 6.0, 25° C.
# Description: (§1) The yeast strains were grown in 3 mL Delft medium (pH 6.0) at 250 rpm, 25° C., overnight. Three μL of the overnight cultures were used to inoculate 100 μL Delft medium (pH 6.0) with or without 50 g/[…] in 96-well flat bottom plate. The 96-well plate was incubated with shaking in the SynergyTM MX microplate reader (BioTek) at 25° C. and the absorbance was measured at 600 nm wavelength every 15 min for 72 hours. Experiments were done in triplicates, and the specific growth rate (h^-1) was calculated. The effect of GSH addition was performed by adding 5 mM GSH into the cultivation medium containing 50 g/[…]. The growth of each strain was determined as mentioned above.
# S. kluyveri = conditions: 5 mM GSH, 50 g/L 3HP, Delft medium pH 6.0, 25° C.
# Description: as §1
# K. lactis = conditions: 5 mM GSH, 50 g/L 3HP, Delft medium pH 6.0, 25° C.
# Description: as §1
# haploid wild-type cells = conditions: cited from earlier work
# [5] = 5 mM GSH, 50 g/L 3HP, Delft medium pH 6.0
smiles,measurement,setting,value
"O=C(O)CCO [3HP, 3-hydroxypropionic acid]",decrease in the specific growth rate compared to the cells grown in M9 medium,"[1]; strain MG1655, M9 medium containing 20 g/L 3HP",2.2 fold
same,3HP concentration tolerated (with decreased specific growth rate),"K. marxianus; Delft medium pH 6.0, 25° C.",more than 50 g/L
same,3HP concentration tolerated (with decreased specific growth rate),"C. jadinii; Delft medium pH 6.0, 25° C.",more than 50 g/L
same,3HP concentration in minimum media at which the strain could not grow,[2]; ST609 (SFA1-wt allele without over expression),above 40 g/L
same,3HP concentration in minimum media at which the strain could grow,[2]; ST610 (SFA1^G827C),above 40 g/L
same,3HP concentration in minimum media at which the strain could grow,[2]; ST611 (SFA1^G849A),above 40 g/L
same,3HP concentration tolerated (with decreased specific growth rate),"Rhodotorula minuta; Delft medium pH 6.0, 25° C.",more than 50 g/L
same,3HP concentration tolerated (with decreased specific growth rate),"Y. lipolytica; Delft medium pH 6.0, 25° C.",more than 50 g/L
same,3HP concentration tolerated (with decreased specific growth rate),"S. pombe; Delft medium pH 6.0, 25° C.",more than 50 g/L
same,3HP concentration tolerated (with decreased specific growth rate),"T. delbrueckii; Delft medium pH 6.0, 25° C.",more than 50 g/L
same,concentration of 3-HP at which the wild type yeast is unable to grow at all,[3],75 g/L
same,concentration of 3-HP producing a substantial level of inhibition of growth,[3],above 10 g/L
"N[C@@H](CCC(=O)N[C@@H](CS)C(=O)NCC(=O)O)C(=O)O [GSH, glutathione]",effect of GSH addition on viability,"[1]; strain BL21, 5 mM GSH",restored the viability
same,effect of GSH addition on viability,"[1]; strain CROOKS, 5 mM GSH",restored the viability
same,effect of GSH addition on specific growth rate,"[1]; strain MG1655, 5 mM GSH, medium containing 20 g/L 3HP",improved
same,effect of GSH addition on viability,"[1]; strain W3110, 5 mM GSH",restored the viability
same,effect of GSH addition on viability,"[1]; strain W, 5 mM GSH",restored the viability
same,effect of GSH addition on specific growth rate,K. marxianus; [5],improved
same,effect of GSH addition on specific growth rate,C. jadinii; [5],improved
same,GSH concentration that restored growth in the presence of 50 g/L 3HP,"[4]; WT S. cerevisiae, 50 g/L 3HP, Delft buffered pH 3.5",≥ 2.5 mM
same,effect of GSH on growth,"[4]; all strains, minimal medium without 50 g/L 3HP",no significant effect
same,effect of GSH addition on growth,"[4]; sfa1Δ strain, 50 g/L 3HP",could not be restored
same,effect of GSH addition on growth rate,"[4]; strain carrying the SFA1 alleles, 50 g/L 3HP",improved the growth rate
same,effect of GSH addition on viability,S. cerevisiae,restored the viability
same,effect of GSH addition on viability,S. kluyveri,restored the viability
same,effect of GSH addition on viability,K. lactis,restored the viability
same,effect of GSH addition on specific growth rate,Rhodotorula minuta; [5],improved
same,effect of GSH addition on specific growth rate,Y. lipolytica; [5],improved
same,effect of GSH addition on specific growth rate,S. pombe; [5],improved
same,effect of GSH addition on specific growth rate,T. delbrueckii; [5],improved
C=O [formaldehyde],concentration that is cytostatic or cytotoxic,haploid wild-type cells,≥ 1000 µM
